We go through twelve molecules from US8728771B2, “L-succinylaminoacylase and process for producing L-amino acid using it” (Toyo Boseki Kabushiki Kaisha, priority 2008, dated 2014).

In data set [1] the test system is L-succinylaminoacylase disclosed in Patent Document 3. As to the kind of experiment: Comparative experiment for enzymatic activity (ii), enzyme of Patent Document 3 (Example 7). The class given is biochemical, Geobacillus stearothermophilus NCA 1503 strain. As to conditions: 4 hours, 50° C., pH 7.5, cobalt acetate. The procedure: (§1) Each of N-succinyl-DL-4-bromophenylalanine, N-succinyl-DL-biphenylalanine, N-succinyl-DL-3,4-dichlorophenylalanine, N-succinyl-DL-cyclohexylglycine, and N-succinyl-DL-tert-leucine synthesized in the above (3) was used to prepare an amino acid solution of 10% by weight (pH 7.5). Mixed solution of 0.25 ml of 0.1M HEPES-NaOH buffer (pH 7.5), 0.025 ml of 0.1M cobalt acetate solution, 0.5 ml of each amino acid solution and 4.2 ml of distilled water was prepared. To the resulting solution was added 0.025 ml of a solution of the L-succinylaminoacylase disclosed in Example 1 of Patent Document 3 made into 5 mg/ml or a solution of the L-succinylaminoacylase of the present invention prepared in the above Example 1 made into 5 mg/ml. The resulting reaction solution was subjected to a reaction for 4 hours with stirring at 50° C. After completion of the reaction, a sample was collected therefrom and subjected to an HPLC measurement under the same condition as in Example 2 to calculate the conversion rate into each of the L-amino acids corresponding to N-succinyl-DL-4-bromophenylalanine, N-succinyl-DL-biphenylalanine, N-succinyl-DL-3,4-dichlorophenylalanine, N-succinyl-DL-cyclohexylglycine, and N-succinyl-DL-tert-leucine.

Data set [2] relates to L-succinylaminoacylase of the present invention. Nature of the data set: Comparative experiment for enzymatic activity (ii), enzyme of the present invention (Example 7). In kind it is biochemical, Geobacillus stearothermophilus IFO 12983 strain. Particulars: 4 hours, 50° C., pH 7.5, cobalt acetate. Here is the method: as §1
For data set [3] the test system is unchanged. Nature of the data set: Hydrolysis of N-succinyl-DL-amino acid to L-amino acid by L-succinylaminoacylase, HPLC (Examples 2 and 3). The class given is biochemical, Geobacillus stearothermophilus IFO 12983 strain. As to conditions: for Yield (%) of corresponding L-amino acid: 10% by weight substrate, 96 hours, same condition as in Example 2 (57° C., 0.5 mM CoCl2). The procedure:
The N-succinyl-DL-tert-leucine synthesized in the above (1) was dissolved in distilled water and its pH was adjusted using 0.1N sodium hydroxide (manufactured by Nacalai tesque) to prepare a 5% by weight solution of N-succinyl-DL-tert-leucine (pH 7 to 8). […] This reaction solution was kept at 57° C. for 144 hours with stirring.
Column: Inertsil ODS-2 (particle size: 5 μm; 4.6 mm inner diameter×250 mm length) manufactured by GL Science
Eluant: aqueous solution of phosphate (pH 2.3)/acetonitrile for HPLC=80:20
Column temperature: 40° C.
The reaction was carried out for 96 hours under the same condition as in Example 2 using N-succinyl-DL-valine, N-succinyl-DL-phenylalanine, N-succinyl-DL-tryptophan, N-succinyl-DL-asparagine, N-succinyl-DL-serine, N-succinyl-DL-tyrosine, or N-succinyl-DL-cyclohexylglycine synthesized in the above (2) and (3) instead of N-succinyl-DL-tert-leucine. However, concentration of each N-succinyl-DL-amino acid was made 10% by weight. After completion of the reaction, a sample was collected therefrom and subjected an HPLC measurement under the same condition as in Example 2 to calculate the conversion rate into each L-amino acid corresponding to N-succinyl-DL-valine, N-succinyl-DL-phenylalanine, N-succinyl-DL-tryptophan, N-succinyl-DL-asparagine, N-succinyl-DL-serine, N-succinyl-DL-tyrosine, and N-succinyl-DL-cyclohexylglycine.

Data set [4] relates to L-succinylaminoacylase of the present invention and N-succinylamino acid racemase. As to the kind of experiment: Synthesis of L-tert-leucine using L-succinylaminoacylase and N-succinylamino acid racemase (i) (Example 4). In kind it is biochemical, Geobacillus stearothermophilus. Particulars: 1% by weight substrate, racemase prepared in (1) added, 90 hours; 100% is the theoretically highest yield. The procedure: The reaction was carried out for 90 hours under the same condition as in Example 2 except that the concentration of the N-succinyl-DL-tert-leucine solution was made 1% by weight and that 0.1 ml of a 9.6 mg/ml solution of N-succinylamino acid racemase prepared in the above (1) was previously added to the reaction solution. After completion of the reaction, the sample was collected therefrom and subjected to an HPLC measurement under the same condition as in Example 2 to calculate the yield of L-tert-leucine whereupon the yield was not lower than 90% and the value being nearly equal to 100% which is the theoretically highest yield was achieved.

Data set [5] has the same test system. As to the kind of experiment: Synthesis of L-tert-leucine using L-succinylaminoacylase and N-succinylamino acid racemase (ii) (Example 5). The class given is biochemical. As to conditions: 1% by weight substrate, racemase prepared in (2) added, up to 120 hours. Here is the method: The same reaction as in Example 4 was carried out for 120 hours except that the product prepared in the above (2) was used as an N-succinylamino acid racemase. The sample was collected after 24 hours, 48 hours and 120 hours from the start of the reaction and subjected to an HPLC measurement under the same condition as in Example 2 to confirm the synthesis of L-tert-leucine from N-succinyl-DL-tert-leucine.

Data set [6] deals with L-succinylaminoacylase of the present invention. As to the kind of experiment: Comparative experiment for enzymatic activity (i), with racemase (Example 6). As to conditions: 5% by weight substrate, racemase (2), 50° C., up to 144 hours, FIG. 3. In kind it is biochemical, Geobacillus stearothermophilus IFO 12983 strain. The procedure:
The N-succinyl-DL-tert-leucine synthesized in the above (1) was dissolved in distilled water and its pH was adjusted using 0.1N sodium hydroxide (manufactured by Nacalai tesque) to prepare a 5% by weight solution of N-succinyl-DL-tert-leucine (pH 7 to 8). To 10 ml of this solution were added 0.5 mM (final concentration) of CoCl2 and 0.1 ml of the N-succinylamino acid racemase in the above (2) prepared in 10 mg/ml. To the resulting solution was added 0.1 ml of the L-succinylaminoacylase disclosed in Example 1 of Patent Document 3 made into 2.5 mg/ml or a solution of the L-succinylaminoacylase of the present invention prepared in the above Example 1 and made into 2.5 mg/ml. The prepared reaction solution was kept at 50° C. for 144 hours with stirring. The sample was collected after 24 hours, 48 hours, 72 hours and 144 hours from the start of the reaction and subjected to an HPLC measurement to confirm the peaks of succinyl-form compound and free-form compound whereby the synthesis of L-tert-leucine from N-succinyl-DL-tert-leucine was confirmed.

A short description of data set [7]: Metal ion dependence of L-succinylaminoacylase activity. In kind it is biochemical. The text has this:
Examples of the divalent or univalent metal ion include Mn^2+, Co^2+, Mg^2+, Ca^2+, Ni^2+ and K^+ and, among them, Co^2+ is particularly preferred. It has been known that, when Co^2+ is used, the activity increased to an extent of twice or more as compared with the case where Zn^2+ is used.

The nature of data set [8]: Physical and chemical properties of the L-succinylaminoacylase (temperature stability, optimum temperature, optimum pH). The class given is physicochemical. Here is the method:
Physical and chemical properties of the L-succinylaminoacylase of the present invention are as shown in the following (i) to (v).
(iii) Temperature stability: When it is subjected to a heating treatment for 30 minutes, it is stable at 70° C. and is inactivated at 75° C. or higher;
(iv) Optimum temperature: When it is made to react at pH 7 to 8, its action is optimum at the temperature of 55 to 60° C.; and
(v) Optimum pH: When it is made to react at 60° C. for 30 minutes, its action is optimum at pH 7.

[9] abbreviates: heating treatment for 30 minutes.

Take `O=C(O)CCC(=O)NC(Cc1ccc(Br)cc1)C(=O)O` (racemic) [N-succinyl-DL-4-bromophenylalanine]: in data set [1], the “Conversion rate by L-succinylaminoacylase of Patent Document 3 (%)” value (“Conversion rate … of Patent Document 3 (%)” for short) was 97.1%. In addition, the “Conversion rate by L-succinylaminoacylase of the present invention (%)” value (“Conversion rate … of the present invention (%)” for short) in data set [2] was 97.5%.

Take `NC(=O)CC(NC(=O)CCC(=O)O)C(=O)O` (racemic) [N-succinyl-DL-asparagine]: the “Yield (%) of corresponding L-amino acid” value in data set [3] worked out at 42.5%.

For `O=C(O)CCC(=O)NC(Cc1ccc(-c2ccccc2)cc1)C(=O)O` (racemic) [N-succinyl-DL-biphenylalanine], the “Conversion rate … of Patent Document 3 (%)” value in data set [1] is 8.8%. Further, the “Conversion rate … of the present invention (%)” value in data set [2] worked out at 74.1%.

For `O=C(O)CCC(=O)NC(C(=O)O)C1CCCCC1` (racemic) [N-succinyl-DL-cyclohexylglycine], in data set [1], the “Conversion rate … of Patent Document 3 (%)” value is given as 53.6%. Further, in data set [3], the “Yield (%) of corresponding L-amino acid” value was 49.2%. Also, in data set [2], the “Conversion rate … of the present invention (%)” value was found to be 97.3%.

For the molecule `O=C(O)CCC(=O)NC(Cc1ccc(Cl)c(Cl)c1)C(=O)O` (racemic) [N-succinyl-DL-dichlorophenylalanine, N-succinyl-DL-3,4-dichlorophenylalanine], the “Conversion rate … of Patent Document 3 (%)” value in data set [1] was determined as 82.0%. Also, the “Conversion rate … of the present invention (%)” value in data set [2] is recorded as 83.3%.

Consider `O=C(O)CCC(=O)NC(Cc1ccccc1)C(=O)O` (racemic) [N-succinyl-DL-phenylalanine], for which the “Yield (%) of corresponding L-amino acid” value in data set [3] was determined as 37.5%.

With `O=C(O)CCC(=O)NC(CO)C(=O)O` (racemic) [N-succinyl-DL-serine], in data set [3], the “Yield (%) of corresponding L-amino acid” value turned out to be 43.4%.

Take `CC(C)(C)C(NC(=O)CCC(=O)O)C(=O)O` (racemic) [N-succinyl-DL-tert-leucine]: the “Yield of L-tert-leucine” value in data set [4] and in data set [5] was at least 90% throughout. Also, in data set [1], the “Conversion rate … of Patent Document 3 (%)” value is reported as 0.1%. For the same molecule, the “Yield (conversion rate) of L-tert-leucine” value in data set [3] (5% by weight substrate, 0.5 mM CoCl2, 57° C., pH 7 to 8, up to 144 hours, 50% is the theoretically highest yield) is about 50%. Moreover, in data set [6], the “Conversion rate from N-succinyl-DL-tert-leucine to L-tert-leucine compared with enzyme of Patent Document 3” value was “significantly high conversion rate”. Moreover, the “Conversion rate … of the present invention (%)” value in data set [2] stood at 45.7%.

Turning to `O=C(O)CCC(=O)NC(Cc1c[nH]c2ccccc12)C(=O)O` (racemic) [N-succinyl-DL-tryptophan], the “Yield (%) of corresponding L-amino acid” value in data set [3] came out at 31.4%.

As for `O=C(O)CCC(=O)NC(Cc1ccc(O)cc1)C(=O)O` (racemic) [N-succinyl-DL-tyrosine], in data set [3], the “Yield (%) of corresponding L-amino acid” value is on record as 19.1%.

As to `CC(C)C(NC(=O)CCC(=O)O)C(=O)O` (racemic) [N-succinyl-DL-valine], the “Yield (%) of corresponding L-amino acid” value in data set [3] came to 42.4%.

B1: L-succinylaminoacylase of the present invention: protein of amino acid sequence SEQ ID No: 2, L-succinylaminoacylase of IFO 12983 strain of Geobacillus stearothermophilus (protein, listed as Geobacillus stearothermophilus)
chain: MKEIIQQMKAELWSIFDYLHRHPEISWEEWGTTEFVRRELEREGYRVWTFADCPGVVAEIGDGPFMVGVRSDMDALWQEVNGVWQPNHACGHDAHMTIVLGVAKLLRRIGYEPPGTLRFLFQPAEEKGTGALKLIEKGAVDGMSFLYGVHLRPVQEVKSGYATPAIIHGAAQCIEGRIRGMAAHAARPHLGVNVIEVGSAIVQELGKIHVDPQVPATIKMTRFHAGEKDVNTIPDYAEFSLDLRAQTNEAMEQLVERLRRVVNGVAAIYGAEIELDERTRIVAANPDLDAKRLMEEAIIAVLGEEKCIPPVITSGGEDFHFYAFKKPELKTTMLGLGCDLRPGLHHPQMTFQRDDLLSGIEILARTVINTFALQGEKERVSIAANH
For the molecule B1, in data set [7], the “Increase of activity with Co^2+ as compared with Zn^2+” value is recorded as “twice or more”. Moreover, in data set [8] (setting [9]), the “Temperature stability: inactivated at” value was at least 75 °C and the “Temperature stability: stable at” value came out at 70 °C. The “Optimum pH” value in data set [8] (reaction at 60° C. for 30 minutes) worked out at 7.
